Assays:
metastatic melanoma = details: patients with the mutation, cited from earlier work
patient's tumor = test: Case report: patient who became resistant to successive therapies (Example 1); type: in vivo, human; details: single patient
Experimental: A person had been on multiple lines of therapy, with a response to each, but then becoming resistant. The treatments were as follows:
In July, ipilimumab (a therapy directed at CTLA-4, an inhibitor of the immune system) was started. Sutent® was then administered in addition to the ipilimumab. […] As the patient, however, could not eat, they discontinued the Sutent® and died a few days after this discontinuation.

[1] = Sutent given in addition to ipilimumab, within a few days

Compound | response rate (metastatic melanoma; one study) | durability of responses (metastatic melanoma) | patient's tumor shrank (patient's tumor; first scan after treatment started January 2010) | result of second scan (patient's tumor; second scan April 2010) | abdomen size (patient's tumor; [1]) | bowel movements (patient's tumor; [1])
CCCS(=O)(=O)Nc1ccc(F)c(C(=O)c2c[nH]c3ncc(-c4ccc(Cl)cc4)cc23)c1F [Plexxikon 4032] | 70% | generally does not produce durable responses | 75% | recurrence |  | 
CCN(CC)CCNC(=O)c1c(C)[nH]c(/C=C2\C(=O)Nc3ccc(F)cc32)c1C [Sutent®, 5-(5-fluoro-2-oxo-1,2-dihydroindo1-3-ylidenemethyl)-2,4-dimethyl-1H-pyrrole-3-carboxylic acid (2-diethylaminoethyl)amide] |  |  |  |  | abdomen shrank to normal size | normal bowel movements resumed
